# Assay results as given in patent US9682980B2, “Positive allosteric modulators of mGluR2” (BRISTOL-MYERS SQUIBB COMPANY, priority 2012, dated 2017).
# Target: human mGluR2 (Homo sapiens (Human), UniProt Q14416)
# Assay: MGluR2 cAMP assay
# Assay type: cell-based
# Conditions: HEK293 cells clonally expressing human mGluR2, 1 μM forskolin, 1 μM LY-341495
# Method: Clonally expressed human mGluR2 in HEK293 background was glutamate starved overnight in media without glutamine (GIBCO MEM 12360), containing 10% FBS, 1% penicillin streptomycin.
# On the day of the assay, media was removed, cells washed with PBS, cells harvested and pelleted by centrifugation. Cell pellets were resuspended in stimulation buffer without forskolin and counted. A solution of 1.25×10^6 cells/ml was prepared and dispensed to plates using a Combi liquid handler (Thermo). A standard curve was created using a top concentration of cAMP of 1 μM in the stimulation buffer, 1:3 dilutions over 14 points in the absence of cells. Plates were read by time-resolved fluorescence at […] and a ratio was calculated via in house software, (665 nM/618 nM)*10^4. In house software converted the fluorescence value ratios to units of cAMP concentration, which is then used to calculate % inhibition for each test compound.
# Compounds were added to white, standard volume 384 non-binding surface plates (Corning 3574). Cells were resuspended in stimulation buffer consisting of Hanks Balanced Salt Solution (14175-095) pH 7.0, 20 mM HEPES, 2.0 mM CaCl2, 5.0 mM MgCl2, and 1 mM IBMX (Sigma 15879), 1 μM forskolin, and 1 μM LY-341495, for 30 minutes. Buffer without forskolin was used as a negative control. Solutions of D2 and cryptate detection reagents from the CISBIO dynamic cAMP kit (62AM4PEJ) were diluted 1:40 in lysis buffer. Lysis buffer consisted of 50 mM Phosphate Buffer pH 7.0, 800 mM Potassium Fluoride, 0.2% BSA, and 1.0% Triton. Assay reaction was terminated by addition of detection reagents in lysis buffer. One hour later, plates were read on a PE Viewlux. Data was extracted, and concentration response curves generated by fitting the data to a standard 4 parameter logistic equation from which EC50 values were determined See table 1: A: <10 nM; B: 10-100 nM; C: 100-1000 nM; D: 1000-10000 nM.
# human mGluR2, sequence (Q14416 19-872): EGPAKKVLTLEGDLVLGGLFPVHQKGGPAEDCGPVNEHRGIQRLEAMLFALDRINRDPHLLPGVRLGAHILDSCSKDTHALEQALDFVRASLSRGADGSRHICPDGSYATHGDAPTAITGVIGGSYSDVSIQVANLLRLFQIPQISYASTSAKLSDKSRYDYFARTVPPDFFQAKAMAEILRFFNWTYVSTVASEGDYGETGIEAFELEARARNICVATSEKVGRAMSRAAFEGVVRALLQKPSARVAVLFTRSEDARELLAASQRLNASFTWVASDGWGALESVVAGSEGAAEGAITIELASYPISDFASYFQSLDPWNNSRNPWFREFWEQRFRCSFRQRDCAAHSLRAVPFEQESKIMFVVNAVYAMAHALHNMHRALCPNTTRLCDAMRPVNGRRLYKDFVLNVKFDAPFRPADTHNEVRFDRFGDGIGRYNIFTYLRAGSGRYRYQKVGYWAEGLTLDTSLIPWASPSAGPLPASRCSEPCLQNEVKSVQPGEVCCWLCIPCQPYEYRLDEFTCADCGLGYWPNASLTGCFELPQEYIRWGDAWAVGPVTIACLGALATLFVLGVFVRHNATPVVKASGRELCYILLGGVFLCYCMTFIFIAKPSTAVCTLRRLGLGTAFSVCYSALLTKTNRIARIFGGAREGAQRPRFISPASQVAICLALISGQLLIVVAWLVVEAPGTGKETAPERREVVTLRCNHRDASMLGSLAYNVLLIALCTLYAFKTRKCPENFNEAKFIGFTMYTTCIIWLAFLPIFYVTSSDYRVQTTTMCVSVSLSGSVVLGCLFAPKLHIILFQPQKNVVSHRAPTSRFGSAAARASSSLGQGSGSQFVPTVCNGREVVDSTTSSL
row,EC50 [nM],Compound
1,76,"Fc1ccc([C@@H]2C[C@H]2CNc2cnn3c(CC4CC4)nnc3c2Cl)cc1 (racemic) [Example 9, Trans-8-chloro-3-(cyclopropylmethyl)-N-((2-(4-fluorophenyl)cyclopropyl)methyl)-[1,2,4]triazolo[4,3-b]pyridazin-7-amine]"
2,10,"COc1ccccc1[C@@H]1C[C@H]1CNc1cnn2c(CC(F)(F)F)nnc2c1C(F)(F)F (relative stereo) [Example 85, Trans-N-((2-(2-methoxyphenyl)cyclopropyl)methyl)-3-(2,2,2-trifluoroethyl)-8-(trifluoromethyl)-[1,2,4]triazolo[4,3-b]pyridazin-7-amine]"
3,8,"Clc1c(N2CCC(c3ccccc3)CC2)ncn2c(CC3CC3)nnc12 [Example 1, 8-Chloro-3-(cyclopropylmethyl)-7-(4-phenylpiperidin-1-yl)-[1,2,4]triazolo[4,3-c]pyrimidine]"
4,62,"Cc1c(N2CCC(c3ccccc3)CC2)ncn2c(CC3CC3)nnc12 [Example 2, 3-(Cyclopropylmethyl)-8-methyl-7-(4-phenylpiperidin-1-yl)-[1,2,4]triazolo[4,3-c]pyrimidine]"
5,540,"COc1c(N2CCC(c3ccccc3)CC2)ncn2c(CC3CC3)nnc12 [Example 3, 3-(Cyclopropylmethyl)-8-methoxy-7-(4-phenylpiperidin-1-yl)-[1,2,4]triazolo[4,3-c]pyrimidine]"
6,69,"FC(F)(F)c1c(N2CCC(c3ccccc3)CC2)ncn2c(CC3CC3)nnc12 [Example 4, 3-(Cyclopropylmethyl)-7-(4-phenylpiperidin-1-yl)-8-(trifluoromethyl)-[1,2,4]triazolo[4,3-c]pyrimidine]"
7,19,"Clc1c(N2CCC(c3ccccc3)CC2)cnn2c(CC3CC3)nnc12 [Example 5, 8-Chloro-3-(cyclopropylmethyl)-7-(4-phenylpiperidin-1-yl)-[1,2,4]triazolo[4,3-b]pyridazine]"
8,182,"Cc1c(N2CCC(c3ccccc3)CC2)cnn2c(CC3CC3)nnc12 [Example 6, 3-(Cyclopropylmethyl)-8-methyl-7-(4-phenylpiperidin-1-yl)-[1,2,4]triazolo[4,3-b]pyridazine]"
9,3,"FC(F)(F)c1c(N2CCC(c3ccccc3)CC2)cnn2c(CC3CC3)nnc12 [Example 7, 3-(Cyclopropylmethyl)-7-(4-phenylpiperidin-1-yl)-8-(trifluoromethyl)-[1,2,4]triazolo[4,3-b]pyridazine]"
10,61,"Clc1c(N2CCC(Cc3ccccc3)CC2)ncn2c(CC3CC3)nnc12 [Example 8, 7-(4-Benzylpiperidin-1-yl)-8-chloro-3-(cyclopropylmethyl)-[1,2,4]triazolo[4,3-c]pyrimidine]"
11,158,"Fc1ccc([C@@H]2C[C@H]2CNc2cnn3c(CC4CC4)nnc3c2Cl)cc1 [Example 10, 8-Chloro-3-(cyclopropylmethyl)-N-(((1R,2R)-2-(4-fluorophenyl)cyclopropyl)methyl)-[1,2,4]triazolo[4,3-b]pyridazin-7-amine]"
12,60,"Fc1ccc([C@H]2C[C@@H]2CNc2cnn3c(CC4CC4)nnc3c2Cl)cc1 [Example 11, 8-Chloro-3-(cyclopropylmethyl)-N-(((1S,2S)-2-(4-fluorophenyl)cyclopropyl)methyl)-[1,2,4]triazolo[4,3-b]pyridazin-7-amine]"
13,519,"COc1c(N2CCC(c3ccc(F)cc3)CC2)ncn2c(CC3CC3)nnc12 [Example 12, 3-(Cyclopropylmethyl)-7-(4-(4-fluorophenyl)piperidin-1-yl)-8-methoxy-[1,2,4]triazolo[4,3-c]pyrimidine]"
14,286,"COc1c(N2CCC(c3ccc(F)cc3)CC2)ncn2c(CC(C)(C)C)nnc12 [Example 13, 7-(4-(4-Fluorophenyl)piperidin-1-yl)-8-methoxy-3-neopentyl-[1,2,4]triazolo[4,3-c]pyrimidine]"
15,782,"COc1c(N2CCC(O)(c3ccc(F)cc3)CC2)ncn2c(CC3CC3)nnc12 [Example 14, 1-(3-(Cyclopropylmethyl)-8-methoxy-[1,2,4]triazolo[4,3-c]pyrimidin-7-yl)-4-(4-fluorophenyl)piperidin-4-ol]"
16,280,"Clc1c(N2CCN(c3ncccn3)CC2)cnn2c(CC3CC3)nnc12 [Example 15, 8-Chloro-3-(cyclopropylmethyl)-7-(4-(pyrimidin-2-yl)piperazin-1-yl)-[1,2,4]triazolo[4,3-b]pyridazine]"

row,EC50 [nM],Compound
1,437,"CC(C)(C)Cc1nnc2c(Cl)c(N3CCN(c4ncccn4)CC3)cnn12 [Example 16, 8-Chloro-3-neopentyl-7-(4-(pyrimidin-2-yl)piperazin-1-yl)-[1,2,4]triazolo[4,3-b]pyridazine]"
2,46,"Fc1ccc(C2CCN(c3cnn4c(CC5CC5)nnc4c3Cl)CC2)cc1 [Example 17, 8-Chloro-3-(cyclopropylmethyl)-7-(4-(4-fluorophenyl)piperidin-1-yl)-[1,2,4]triazolo[4,3-b]pyridazine]"
3,145,"CC(C)(C)Cc1nnc2c(Cl)c(N3CCC(c4ccc(F)cc4)CC3)cnn12 [Example 18, 8-Chloro-7-(4-(4-fluorophenyl)piperidin-1-yl)-3-neopentyl-[1,2,4]triazolo[4,3-b]pyridazine]"
4,614,"Fc1ccc(N2CCN(c3cnn4c(CC5CC5)nnc4c3Cl)CC2)cc1 [Example 19, 8-Chloro-3-(cyclopropylmethyl)-7-(4-(4-fluorophenyl)piperazin-1-yl)-[1,2,4]triazolo[4,3-b]pyridazine]"
5,145,"Clc1c(N2CCC3(C=Cc4ccccc43)CC2)cnn2c(CC3CC3)nnc12 [Example 20, 8-Chloro-3-(cyclopropylmethyl)-7-(spiro[indene-1,4′-piperidin]-1′-yl)-[1,2,4]triazolo[4,3-b]pyridazine]"
6,2310,"Clc1c(NCC2(COc3ccccc3)CC2)cnn2c(CC3CC3)nnc12 [Example 21, 8-Chloro-3-(cyclopropylmethyl)-N-((1-(phenoxymethyl)cyclopropyl)methyl)-[1,2,4]triazolo[4,3-b]pyridazin-7-amine]"
7,3,"COc1cccc(F)c1C1CCN(c2cnn3c(CC4CC4)nnc3c2Cl)CC1 [Example 22, 8-Chloro-3-(cyclopropylmethyl)-7-(4-(2-fluoro-6-methoxyphenyl)piperidin-1-yl)-[1,2,4]triazolo[4,3-b]pyridazine]"
8,13,"Fc1ccccc1C1CCN(c2cnn3c(CC4CC4)nnc3c2Cl)CC1 [Example 23, 8-Chloro-3-(cyclopropylmethyl)-7-(4-(2-fluorophenyl)piperidin-1-yl)-[1,2,4]triazolo[4,3-b]pyridazine]"
9,25,"Fc1cccc(C2CCN(c3cnn4c(CC5CC5)nnc4c3Cl)CC2)c1 [Example 24, 8-Chloro-3-(cyclopropylmethyl)-7-(4-(3-fluorophenyl)piperidin-1-yl)-[1,2,4]triazolo[4,3-b]pyridazine]"
10,20,"Fc1ccccc1C1CCN(c2cnn3c(CC(F)(F)F)nnc3c2Cl)CC1 [Example 25, 8-Chloro-7-(4-(2-fluorophenyl)piperidin-1-yl)-3-(2,2,2-trifluoroethyl)-[1,2,4]triazolo[4,3-b]pyridazine]"
11,2,"COc1cccc(F)c1C1CCN(c2cnn3c(CC(F)(F)F)nnc3c2Cl)CC1 [Example 26, 8-Chloro-7-(4-(2-fluoro-6-methoxyphenyl)piperidin-1-yl)-3-(2,2,2-trifluoroethyl)-[1,2,4]triazolo[4,3-b]pyridazine]"
12,9,"COc1ccccc1C1CCN(c2cnn3c(CC4CC4)nnc3c2Cl)CC1 [Example 27, 8-Chloro-3-(cyclopropylmethyl)-7-(4-(2-methoxyphenyl)piperidin-1-yl)-[1,2,4]triazolo[4,3-b]pyridazine]"
13,38,"COc1cccc(C2CCN(c3cnn4c(CC5CC5)nnc4c3Cl)CC2)c1 [Example 28, 8-Chloro-3-(cyclopropylmethyl)-7-(4-(3-methoxyphenyl)piperidin-1-yl)-[1,2,4]triazolo[4,3-b]pyridazine]"
14,21,"Cc1ccccc1C1CCN(c2cnn3c(CC4CC4)nnc3c2Cl)CC1 [Example 29, 8-Chloro-3-(cyclopropylmethyl)-7-(4-(o-tolyl)piperidin-1-yl)-[1,2,4]triazolo[4,3-b]pyridazine]"
15,18,"COc1ccc(C2CCN(c3cnn4c(CC5CC5)nnc4c3Cl)CC2)cc1 [Example 30, 8-Chloro-3-(cyclopropylmethyl)-7-(4-(4-methoxyphenyl)piperidin-1-yl)-[1,2,4]triazolo[4,3-b]pyridazine]"
16,38,"COC(=O)c1ccccc1C1CCN(c2cnn3c(CC4CC4)nnc3c2Cl)CC1 [Example 31, Methyl 2-(1-(8-chloro-3-(cyclopropylmethyl)-[1,2,4]triazolo[4,3-b]pyridazin-7-yl)piperidin-4-yl)benzoate]"
